Measurements: US8796328B2, “TRPV1 antagonists” (AbbVie Inc., priority 2012, dated 2014)

What was measured:
Type in all cases: in vivo
[1] = tested on: rats; assay: Rat acute capsaicin-induced flinching behavior; conditions: single acute oral dose 100 μmol/kg, capsaicin 2.5 μg one hour after dosing, five minute observation
Procedure: Rats were placed in individual observation cages. Following an acclimation period of 30 minutes, selected compounds were administered orally at a dose of 100 μmol/kg orally in a vehicle (10% ethanol/20% Tween 80/70% polyethylene glycol-400) at a volume of 2 mL/kg. One hour after administration of the compound, 2.5 μg of capsaicin in a 10 μL solution of 10% ethanol/90% hydroxypropyl-β-cyclodextrin was injected subcutaneously into the dorsal aspect of the right hind paw. The observation cage was then suspended above mirrors in order to facilitate observation. […] The number of flinching behaviors of the injured paw was recorded during the five minute observation period (Gilchrist, H. D.; Allard, B. L.; Simone, D. A.; Enhanced withdrawal responses to heat and mechanical stimuli following intraplantar injection of capsaicin in rats. Pain, 1996, 67, 179-188). A single acute oral dose of Example 10 as described above produced a 56% reduction in flinching behavior relative to vehicle-treated animals.

[2] = tested on: rats; assay: Sodium iodoacetate-induced knee joint osteoarthritic pain model (hind limb grip force); conditions: rat, 30 mg/kg single acute oral dose, assessed 1 hour following administration, 20 days after iodoacetate
Procedure: Unilateral knee joint osteoarthritis was induced in the rats by a single intra-articular (i.a.) injection of sodium iodoacetate (3 mg in 0.05 mL sterile isotonic saline) into the right knee joint cavity under light isoflurane anesthesia using a 26G needle. […] Pain behavioral assessment of hind limb grip force was conducted by recording the maximum compressive force exerted on the hind limb strain gauge setup, in a commercially available grip force measurement system (Columbus Instruments, Columbus, Ohio). The grip force data was converted to a maximum hindlimb cumulative compressive force (CFmax) (gram force)/kg body weight for each animal. The analgesic effects of test compounds were determined 20 days following the i.a. injection of sodium iodoacetate. The vehicle control group for each compound being tested was assigned 0% whereas the age matched naïve group was assigned as being 100% (normal). The % effect for each dose group was then expressed as % return to normalcy compared to the naïve group. Test compounds were administered orally in 10% ethanol/20% Tween 80/70% polyethylene glycol-400 vehicle at a volume of 2 mL/kg. The assessment of the analgesic effects of test compounds was made 1 hour following oral administration. […]

[3] = tested on: rats; assay: Rat tail immersion assay (noxious thermosensation, 55° C. water bath)
Procedure: Compounds were tested for their effects on noxious thermosensation using the tail immersion assay. Testing was performed one hour following oral administration of 100 μmol/kg of the compound in 10% ethanol/20% Tween-80/70% PEG-400 (2 mL/kg). Mophine (6 mg/kg) was administered interperitoneally (i.p.) using saline (2 mL/kg) as the vehicle. For testing, a circulating water bath was heated to 55° C. Thirty to sixty minutes post dosing, the rats were handled for a few seconds to calm them down and then cupped with their back against the testers hand at a slight angle with head facing away from tester. With rat in one hand and a 0.01 second stopwatch in the other hand, the tail was quickly immersed 6-8 cm in water bath or to a distance leaving 2-3 cm of tail out of water. The timer was started simultaneously. When the rat flinched or attempted withdrawal, timer was immediately stopped and the rat's tail was quickly removed from water bath. This response latency (in seconds) was recorded. Process was repeated 3 times with 3-4 minutes between readings for a final average.
For a given example, a percent increase in the average response latency (in seconds) for tail withdrawal relative to a vehicle control was determined % increase=[(tc−tv)/tv]×100%
tc=response time (in seconds) with oral dosing of compounds
tv=response time (in seconds) with oral dosing of vehicle
The % increases in tail withdrawal latency relative to vehicle control are divided into the following categories: […]

SMILES: CS(=O)(=O)Nc1ccc(CNC(=O)N[C@@H]2CC(CF)(CF)Oc3cc(C(F)(F)F)ccc32)cc1F [Example 10, N-{4-[({[(4R)-2,2-bis(fluoromethyl)-7-(trifluoromethyl)-3,4-dihydro-2H-chromen-4-yl]carbamoyl}amino)methyl]-2-fluorophenyl}methanesulfonamide]
- reduction in flinching behavior relative to vehicle-treated animals [1]: 56%
- % effect (% return to normalcy) in iodoacetate-induced osteoarthritic pain model [2]: 62%
- % Increase in Tail Withdrawal Latency ([3]; rat, oral 100 μmol/kg, one hour post dosing, relative to vehicle): −
- increase in tail withdrawal latency relative to vehicle-treated animals ([3]; rats, after oral administration): < 10%
